The values that follow come from ChEMBL document CHEMBL1201862, “PubChem BioAssay data set” (2004).

Some test systems named below: 786-0; ACHN; CAKI-1; CCRF-CEM; COLO 205; HOP-92; Hs-578T; IGROV-1; MDA-MB-435; MOLT-4; NCI-H226; PC-3; RPMI-8226; SK-MEL-28; SK-MEL-2; SK-OV-3; SN12C; SR; TK-10; U-251.
What all share (assay): inhibition of tumour cell growth, NCI panel, 48 h

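In this assay, cells in 96-well plates receive the compound at five concentrations for 48 hours. Endpoints are linearly interpolated between the surrounding concentrations. Abbreviation: GI50, concentration required for 50% inhibition of growth.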 Calls of active or inactive are those of the source. Cut-off read from the data, not from the text of the source: active = GI50 up to about 1.1 µM and inactive = higher. Some results are limits rather than exact numbers.

Turning to `COc1ccc(/C=C/C(=O)c2cc(C(C)(C)C)c(O)c(C(C)(C)C)c2)cc1OC`, the GI50 was 8670 nM (inactive) with 786-0; 14600 nM (inactive) with ACHN; 10700 nM (inactive) in the experiment with CAKI-1; 2830 nM (inactive) in the experiment on CCRF-CEM; 5740 nM (inactive) in the experiment with COLO 205; 16600 nM (inactive) in the experiment with HOP-92. Also, the GI50 was 17800 nM (inactive) in the experiment on Hs-578T; 17700 nM (inactive) in the experiment with IGROV-1; 3200 nM (inactive) in the experiment on MDA-MB-435; 2770 nM (inactive) in the experiment on MOLT-4; 10700 nM (inactive) in the experiment with NCI-H226; 3660 nM (inactive) in the experiment on PC-3. Also, the GI50 in the experiment with RPMI-8226 was 2560 nM (inactive); in the experiment with SK-MEL-28, 37500 nM (inactive); in the experiment on SK-MEL-2, 3480 nM (inactive); with SK-OV-3, 18700 nM (inactive); in the experiment with SN12C, 8150 nM (inactive); in the experiment on SR, 551 nM (active). Moreover, the GI50 is 6820 nM (inactive) with TK-10 and 5790 nM (inactive) in the experiment with U-251.

In the case of `O=C(N/N=C\c1c(O)ccc2ccccc12)c1ccncc1`, the GI50 in the experiment with 786-0 was 200 nM (active); with ACHN, 206 nM (active); with CAKI-1 it was 1000 nM (active); in the experiment with CCRF-CEM it was 88.7 nM (active); in the experiment on COLO 205 it was 820 nM (active); in the experiment on HOP-92, 1310 nM (inactive). The GI50 is > 15300 nM (inactive) with Hs-578T; 148 nM (active) with IGROV-1; 1650 nM (inactive) in the experiment with MDA-MB-435; 31.3 nM (active) with MOLT-4; 628 nM (active) in the experiment with NCI-H226; 752 nM (active) in the experiment with PC-3. Besides, the GI50 is 364 nM (active) in the experiment on RPMI-8226; 649 nM (active) in the experiment with SK-MEL-28; 257 nM (active) in the experiment on SK-MEL-2; 693 nM (active) in the experiment on SK-OV-3; 231 nM (active) in the experiment with SN12C; 558 nM (active) in the experiment on SR. The GI50 with TK-10 is > 7230 nM (inactive); in the experiment on U-251, 290 nM (active).

Take `OC1(c2ccccc2)CC2CCC(C1)N2CCCC(O)(c1ccccc1)c1ccccc1` (stereo not given): the GI50 is 12500 nM (inactive) with 786-0; 17200 nM (inactive) in the experiment with ACHN; 14000 nM (inactive) in the experiment on CAKI-1; 4330 nM (inactive) with CCRF-CEM; 10500 nM (inactive) in the experiment with COLO 205; 5620 nM (inactive) in the experiment on HOP-92. Further, the GI50 in the experiment on Hs-578T was 4830 nM (inactive); in the experiment with IGROV-1 it was 7980 nM (inactive); in the experiment on MDA-MB-435 it was 12000 nM (inactive); with MOLT-4, 7450 nM (inactive); in the experiment on NCI-H226, 12400 nM (inactive); in the experiment on PC-3, 3440 nM (inactive). In addition, the GI50 with RPMI-8226 is 2280 nM (inactive); in the experiment with SK-MEL-28, 17700 nM (inactive); with SK-MEL-2 it was 20300 nM (inactive); in the experiment on SK-OV-3, 13800 nM (inactive); in the experiment on SN12C, 16700 nM (inactive); with SR it was 11800 nM (inactive). The GI50 in the experiment with TK-10 was 12700 nM (inactive); in the experiment on U-251, 15100 nM (inactive).

`Nc1nc(O)c2[nH]nnc2n1` [8-AZAGUANINE]: the GI50 is 292 nM (active) in the experiment on 786-0; 16300 nM (inactive) in the experiment with ACHN; 304 nM (active) with CAKI-1; 242 nM (active) in the experiment with CCRF-CEM; 13300 nM (inactive) with COLO 205; 757 nM (active) in the experiment with HOP-92. Moreover, the GI50 in the experiment on Hs-578T is 906 nM (active); in the experiment with IGROV-1 it was 63800 nM (inactive); with MDA-MB-435, 265 nM (active); with MOLT-4 it was 272 nM (active); with NCI-H226 it was 789 nM (active); in the experiment with PC-3, 855 nM (active). Further, the GI50 was 234 nM (active) with RPMI-8226; 728 nM (active) in the experiment on SK-MEL-28; 74 nM (active) with SK-MEL-2; 1040 nM (active) in the experiment on SK-OV-3; 334 nM (active) in the experiment with SN12C; 2420 nM (inactive) in the experiment with SR. Further, the values for the GI50 in the experiment on TK-10 and in the experiment with U-251 were 408 nM (active) and 1740 nM (inactive), respectively.

Take `COc1cc([C@@H]2c3cc4c(cc3C[C@H]3COC(=O)[C@@H]32)OCO4)cc2c1OCO2` [AUSTROBAILIGNAN 1]: the GI50 in the experiment on 786-0 is < 10 nM (active); in the experiment on ACHN, < 12.1 nM (active); with CAKI-1, < 10 nM (active); with CCRF-CEM, 664 nM (active); in the experiment with COLO 205, 10.8 nM (active); in the experiment on HOP-92, < 10 nM (active). The GI50 with Hs-578T, in the experiment on IGROV-1, in the experiment with MDA-MB-435, in the experiment on MOLT-4, in the experiment on NCI-H226 and in the experiment on PC-3 was < 10 nM (active) throughout. Also, the GI50 with RPMI-8226, with SK-MEL-28, with SK-MEL-2, in the experiment on SK-OV-3, in the experiment with SN12C and with SR was < 10 nM (active) each time. Besides, the results for the GI50 with TK-10 and in the experiment with U-251 were 1990 nM (inactive) and < 10 nM (active), respectively.
